# Test results taken from patent publication US20100137377A1, “NOVEL COMPOUNDS” (SOREN EBDRUP ET AL, priority 2007, published 2010).
# “And” between values parts separate entries of the source, which are not always exact repeats. Identical values can stand only once.
# Biological target: T1, h-11βHSD1 (Homo sapiens, UniProt P28845)
# T1 construct: made in house
# Experiment: 11βHSD1 enzyme assay (SPA, 3H-cortisone to 3H-cortisol)
# Assay type: biochemical
# Settings: extract of yeast transformed with h-11βHSD1; 120 nM 3H-cortisone, 4 mM β-NADPH, 60 min at 30° C.; several determinations per cell separated by ';'
# Method: ^3H-cortisone and anti-rabbit Ig coated scintillation proximity assay (SPA) beads were purchased from Amersham Pharmacia Biotech, β-NADPH was from Sigma and rabbit anti-cortisol antibodies were from Fitzgerald. An extract of yeast transformed with h-11βHSD1 (Hutt et al., FEBS Lett., 441, 25 (1998)) was used as the source of enzyme. The test compounds were dissolved in DMSO (10 mM). All dilutions were performed in a buffer containing 50 mM TRIS-HCl (Sigma Chemical Co), 4 mM EDTA (Sigma Chemical Co), 0.1% BSA (Sigma Chemical Co), 0.01% Tween-20 (Sigma Chemical Co) and 0.005% bacitracin (Novo Nordisk A/S), pH=7.4. Optiplate 96 wells plates were supplied by Packard. The amount of ^3H-cortisol bound to the SPA beads was measured on TopCount NXT, Packard.
# h-11βHSD1, 120 nM ^3H-cortisone, 4 mM β-NADPH, antibody (1:200), serial dilutions of test compound and SPA particles (2 mg/well) were added to the wells. The reaction was initiated by mixing the different components and was allowed to proceed under shaking for 60 min at 30° C. The reaction was stopped be the addition of 10 fold excess of a stopping buffer containing 500 μM carbenoxolone and 1 μM cortisone. Data was analysed using GraphPad Prism software.
# T1 sequence (P28845 whole entry): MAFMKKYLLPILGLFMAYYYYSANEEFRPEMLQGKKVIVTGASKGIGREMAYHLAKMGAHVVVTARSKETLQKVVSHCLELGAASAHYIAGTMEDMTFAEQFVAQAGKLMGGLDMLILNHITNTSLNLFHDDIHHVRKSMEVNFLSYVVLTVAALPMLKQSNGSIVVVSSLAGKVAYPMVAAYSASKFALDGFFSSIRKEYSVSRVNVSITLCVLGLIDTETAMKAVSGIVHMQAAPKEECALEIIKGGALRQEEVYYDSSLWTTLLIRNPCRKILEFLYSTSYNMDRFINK
row,IC50,Compound
1,56 nM and 89 nM,"O=C(NC1C2CC3CC1CC(O)(C3)C2)c1ccc(Oc2ccc(Cl)cn2)cc1 (centres unmarked) [Compound 3, 4-(5-Chloro-pyridin-2-yloxy)-N-(5-hydroxy-adamantan-2-yl)-benzamide]"
2,73 nM and 81 nM,"O=C(NC1C2CC3CC1CC(O)(C3)C2)c1ccc(Oc2ccc(Cl)cc2Cl)cc1 (centres unmarked) [Compound 1, 4-(2,4-Dichloro-phenoxy)-N-(5-hydroxy-adamantan-2-yl)-benzamide]"
3,17 nM and 27 nM,"CN(C(=O)c1ccc(Oc2ccc(Cl)cn2)cc1)C1CCC(CO)CC1 (centres unmarked) [Compound 5, 4-(5-Chloro-pyridin-2-yloxy)-N-(4-hydroxymethyl-cyclohexyl)-N-methyl-benzamide]"
4,259 nM and 305 nM,"N#Cc1ccc(Oc2ccc(C(=O)NC3C4CC5CC3CC(O)(C5)C4)cc2)nc1 (centres unmarked) [Compound 2, 4-(5-Cyano-pyridin-2-yloxy)-N-(5-hydroxy-adamantan-2-yl)-benzamide]"
5,51 nM (2×) and 56 nM,"O=C(NC1C2CC3CC1CC(CO)(C3)C2)c1ccc(Oc2ccc(Cl)cn2)cc1 (centres unmarked) [Compound 4, 4-(5-Chloro-pyridin-2-yloxy)-N-(5-hydroxymethyl-adamantan-2-yl)-benzamide]"
